Molecules are shown by their SMILES. Like-named read-outs stand apart in the source and are kept apart here.

For one data set, the target named is T1, CYP2C8 (Homo sapiens, UniProt P10632).
T1 sequence (P10632 1-490): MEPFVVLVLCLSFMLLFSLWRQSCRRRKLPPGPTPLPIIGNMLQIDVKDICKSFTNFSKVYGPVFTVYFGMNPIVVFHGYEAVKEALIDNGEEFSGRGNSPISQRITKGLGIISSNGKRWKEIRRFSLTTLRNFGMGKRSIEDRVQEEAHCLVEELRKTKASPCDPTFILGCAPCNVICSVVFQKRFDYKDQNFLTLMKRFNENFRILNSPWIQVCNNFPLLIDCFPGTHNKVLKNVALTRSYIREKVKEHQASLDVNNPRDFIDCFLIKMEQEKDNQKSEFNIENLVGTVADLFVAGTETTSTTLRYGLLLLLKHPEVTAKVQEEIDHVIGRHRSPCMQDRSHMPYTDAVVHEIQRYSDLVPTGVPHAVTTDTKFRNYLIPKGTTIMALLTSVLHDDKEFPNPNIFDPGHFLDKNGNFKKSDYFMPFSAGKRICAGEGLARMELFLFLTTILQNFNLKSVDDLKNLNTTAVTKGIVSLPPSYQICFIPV
Kind of data set: Inhibition of CYP2C8-catalyzed rosiglitazone 5-hydroxylation in human liver microsomes. The data set is classed as in vitro ADME. Details: incubation mixtures containing pooled human liver microsomes (HLMs, XTreme 200, XenoTech); tissue XenoTech XTreme 200; host or cells: pooled human liver microsomes. The source says:
We used HLMs to determine the mechanisms and constants (Ki values) for […] A inhibition of CYP1A2, CYP2B6, CYP2C8, CYP2C9 and CYP3A. […] The substrates were used at concentrations approximately near to their respective Km values. […] The other conditions were the same as in the cytochrome P450 inhibition study. […] Phenomenex, Torrance, CA, USA) and analyzed using a Shimadzu LCMS 8060 triple-quadrupole mass spectrometer coupled with a Nexera X2 ultra high-performance liquid chromatography system (Shimadzu, Kyoto, Japan) equipped with an electrospray ionization interface. The mobile phase consisted of 0.1% formic acid in water (A) and 0.1% formic acid in acetonitrile (B). […] The flow rate was 0.2 mL/min. Electrospray ionization was performed in positive-ion mode at 4000 V or in negative-ion mode at -3500 V. The optimum operating conditions were determined as follows: vaporizer temperature, 300 °C; capillary temperature, 350 °C; collision gas (argon) pressure, 1.5 mTorr. Quantitation was conducted in selected reaction monitoring (SRM) modes with the precursor-to-product ion transition for each metabolite (Table 1 and Table 2). We analyzed the data with Shimadzu LabSolution LC-MS software. The IC50 values were calculated by WinNonlin software (Pharsight, Mountain View, CA, USA). […]
In general terms: Liver microsomes are vesicles of endoplasmic reticulum, rich in cytochrome P450 enzymes.

Data set [1] concerns the target T2, CYP2C9 (Homo sapiens, UniProt P11712). Kind of data set: Time-dependent inhibition (IC50 shift) of CYP2C9, diclofenac, human liver microsomes. Details: incubation mixtures containing pooled human liver microsomes (HLMs, XTreme 200, XenoTech); tissue XenoTech XTreme 200; host or cells: pooled human liver microsomes. The data set is classed as in vitro ADME. The procedure:
The time-dependent inhibition of selamariscina A against CYP2C8 and CYP2C9 enzymes was evaluated using an IC50 shift method. Selamariscina A was pre-incubated at six concentrations (0, 0.002, 0.005, 0.02, 0.05, and 0.2 μM) with HLMs in the presence of an NDAPH generation system for 30 min at 37 °C. The reaction was initiated by adding 1 μM amodiaquine or 10 μM diclofenac and further incubated for 10 min. Incubation was terminated by adding 50 μL of ice-cold acetonitrile containing 7 nM trimipramine. After centrifugation, aliquots of supernatants were analyzed by LC–MS/MS.
All metabolites and the IS were separated on a Kinetex XB-C18 column (100 × 2.10 mm, 2.6 μm, 100 Å; Phenomenex, Torrance, CA, USA) and analyzed using a Shimadzu LCMS 8060 triple-quadrupole mass spectrometer coupled with a Nexera X2 ultra high-performance liquid chromatography system (Shimadzu, Kyoto, Japan) equipped with an electrospray ionization interface. The mobile phase consisted of 0.1% formic acid in water (A) and 0.1% formic acid in acetonitrile (B). The elution condition was set as 8% B (0–0.5 min), 8%→60% B (0.5–5 min), 60% B (5–6 min), 60%→8% B (6–6.1 min) and 8% B (6.1–9 min) for the analysis of metabolites of P450 probe substrates and set as 0%→40% B (0–1 min), 40%→50% B (1–5 min), 50%→0% B (5–5.1 min), and 0% B (5.1–8 min) for the analysis of metabolites of UGT probe substrates. The flow rate was 0.2 mL/min. Electrospray ionization was performed in positive-ion mode at 4000 V or in negative-ion mode at −3500 V. The optimum operating conditions were determined as follows: vaporizer temperature, 300 °C; capillary temperature, 350 °C; collision gas (argon) pressure, 1.5 mTorr. Quantitation was conducted in selected reaction monitoring (SRM) modes with the precursor-to-product ion transition for each metabolite (Table 1 and Table 2).
We analyzed the data with Shimadzu LabSolution LC–MS software. The IC50 values were calculated by WinNonlin software (Pharsight, Mountain View, CA, USA). […]

Data set [2] addresses T2, CYP2C9. The following applies: compared with diclofenac hydroxylase inhibition; S-mephenytoin 25 µM printed as substrate; read-out: IC50 reported by von Moltke et al. (2004); cited from earlier work.

T2 sequence (P11712 whole entry): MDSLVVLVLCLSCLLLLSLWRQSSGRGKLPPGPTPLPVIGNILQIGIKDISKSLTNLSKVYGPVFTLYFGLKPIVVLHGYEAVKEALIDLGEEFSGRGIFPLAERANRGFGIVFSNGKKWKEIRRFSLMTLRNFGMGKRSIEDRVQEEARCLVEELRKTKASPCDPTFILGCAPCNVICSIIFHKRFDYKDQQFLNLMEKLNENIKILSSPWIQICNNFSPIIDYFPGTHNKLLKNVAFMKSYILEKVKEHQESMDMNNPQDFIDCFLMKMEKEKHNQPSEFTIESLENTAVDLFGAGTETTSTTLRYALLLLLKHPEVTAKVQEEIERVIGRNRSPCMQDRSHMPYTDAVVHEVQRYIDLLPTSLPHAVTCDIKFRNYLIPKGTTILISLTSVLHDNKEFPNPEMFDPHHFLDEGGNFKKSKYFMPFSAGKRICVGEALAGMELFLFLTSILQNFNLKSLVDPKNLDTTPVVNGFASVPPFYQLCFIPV

With `O=C1CC(c2cc(-c3c(O)ccc4c(=O)cc(-c5ccc(O)cc5)oc34)c(O)cc2O)Oc2cc(O)cc(O)c21` (stereo not drawn) [selamariscina A], the Ki on CYP2C8 (HLMs, average ± standard error, triplicate) was determined as 10 ± 3 nM. For the same molecule, the “Mode of Inhibition, CYP2C8 rosiglitazone” value at CYP2C8 (microsomes) is on record as “Noncompetitive, partial”. On CYP2C9 [1] (30 min pre-incubation at 37 °C with NADPH generation system, read-out: IC50, CYP2C9 diclofenac, HLMs pre-incubated with NADPH generation system), the IC50 was found to be 92 nM. Also, on CYP2C9 [1] (IC50 shift method), the “Time-dependent inhibition of CYP2C9” value is “not a time-dependent inhibitor”. Further, the IC50 at 10 min at CYP2C9 [1] (human, human liver microsomes, probe diclofenac (10 μM), no NADPH pre-incubation, read-out: IC50, CYP2C9 diclofenac, untreated HLMs) was 54 nM.
In the case of `O=c1cc(-c2ccc(O)c(-c3c(O)cc(O)c4c(=O)cc(-c5ccc(O)cc5)oc34)c2)oc2cc(O)cc(O)c12` [amentoflavone], the IC50 at CYP2C9 [2] is 35 nM.

As usually defined, the Ki is the equilibrium dissociation constant of an inhibitor or competing ligand from its target.

Values taken from PMC7238120, “Strong and Selective Inhibitory Effects of the Biflavonoid Selamariscina A against CYP2C8 and CYP2C9 Enzyme Activities in Human Liver Microsomes” (Pharmaceutics, 2020).
